According to ChEMBL document CHEMBL3593218, “4,6-Substituted-1,3,5-triazin-2(1H)-ones as monocyclic catalytic inhibitors of human DNA topoisomerase IIα targeting the ATP binding site” (Bioorg Med Chem, 2015):
Several values for one entry are separate records, joined by “and”; a condition that tells them apart may be missing. Equal values may be shown once.

How the values were obtained:
[1] = molecular target: T1, DNA topoisomerase 2-alpha (Homo sapiens, UniProt P11388); assay: Inhibition of human DNA topoisomerase IIalpha using plasmid pNO1 as a substrate after 30 mins
T1 sequence (P11388 whole entry): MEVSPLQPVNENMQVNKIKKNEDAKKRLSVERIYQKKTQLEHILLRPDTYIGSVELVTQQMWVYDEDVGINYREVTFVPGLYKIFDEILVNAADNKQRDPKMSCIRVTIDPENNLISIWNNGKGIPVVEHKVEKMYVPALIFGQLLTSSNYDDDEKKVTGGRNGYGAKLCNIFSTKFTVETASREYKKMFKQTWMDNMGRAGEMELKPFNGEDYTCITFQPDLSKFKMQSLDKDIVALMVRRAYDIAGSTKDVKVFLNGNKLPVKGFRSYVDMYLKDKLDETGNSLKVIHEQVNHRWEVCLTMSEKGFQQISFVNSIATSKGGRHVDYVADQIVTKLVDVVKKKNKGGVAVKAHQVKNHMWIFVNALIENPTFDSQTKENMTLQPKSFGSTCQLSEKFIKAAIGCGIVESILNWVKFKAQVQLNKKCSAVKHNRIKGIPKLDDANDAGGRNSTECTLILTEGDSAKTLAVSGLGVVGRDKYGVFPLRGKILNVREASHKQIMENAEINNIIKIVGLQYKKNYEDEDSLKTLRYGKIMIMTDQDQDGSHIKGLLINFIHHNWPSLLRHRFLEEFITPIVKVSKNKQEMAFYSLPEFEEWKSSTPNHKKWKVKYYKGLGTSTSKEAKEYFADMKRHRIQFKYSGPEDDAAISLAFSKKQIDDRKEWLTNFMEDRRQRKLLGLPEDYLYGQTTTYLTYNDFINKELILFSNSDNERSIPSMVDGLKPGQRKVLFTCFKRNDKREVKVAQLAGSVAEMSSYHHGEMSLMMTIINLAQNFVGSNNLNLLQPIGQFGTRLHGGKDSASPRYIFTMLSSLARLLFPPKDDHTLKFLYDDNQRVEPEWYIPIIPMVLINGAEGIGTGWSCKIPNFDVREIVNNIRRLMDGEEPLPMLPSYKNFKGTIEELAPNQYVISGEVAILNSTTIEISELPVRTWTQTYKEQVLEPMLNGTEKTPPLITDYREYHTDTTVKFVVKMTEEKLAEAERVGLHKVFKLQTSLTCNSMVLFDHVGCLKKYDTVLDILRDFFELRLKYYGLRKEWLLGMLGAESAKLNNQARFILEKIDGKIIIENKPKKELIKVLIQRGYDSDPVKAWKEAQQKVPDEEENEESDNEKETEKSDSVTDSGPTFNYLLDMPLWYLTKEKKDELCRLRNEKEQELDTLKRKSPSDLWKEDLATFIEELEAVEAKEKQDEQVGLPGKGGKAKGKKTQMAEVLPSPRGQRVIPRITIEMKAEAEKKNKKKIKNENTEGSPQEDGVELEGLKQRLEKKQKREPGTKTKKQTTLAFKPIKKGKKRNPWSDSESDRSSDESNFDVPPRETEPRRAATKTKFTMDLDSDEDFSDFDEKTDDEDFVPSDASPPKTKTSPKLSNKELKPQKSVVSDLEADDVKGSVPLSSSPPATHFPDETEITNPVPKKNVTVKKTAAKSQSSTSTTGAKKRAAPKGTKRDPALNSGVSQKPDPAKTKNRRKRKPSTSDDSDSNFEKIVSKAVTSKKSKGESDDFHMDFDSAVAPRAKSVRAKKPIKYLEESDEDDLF

[2] = molecular target: T1, DNA topoisomerase 2-alpha; assay: Inhibition of human DNA topoisomerase IIalpha ATPase activity assessed as residual ATP hydrolysis at 500 uM measured up to 60 mins
[3] = molecular target: T1, DNA topoisomerase 2-alpha; assay: Inhibition of human DNA topoisomerase IIalpha ATPase activity assessed as residual ATP hydrolysis at 3.9 uM measured up to 60 mins
[4] = molecular target: T1, DNA topoisomerase 2-alpha; assay: Inhibition of human DNA topoisomerase IIalpha assessed as decatenation of kDNA at 3.9 uM after 90 mins by ethidium bromide staining; parameters: scale not given: the % may be the effect or the level left
[5] = molecular target: T1, DNA topoisomerase 2-alpha; assay: Inhibition of human DNA topoisomerase IIalpha assessed as decatenation of kDNA at 15.625 uM after 90 mins by ethidium bromide staining; parameters: scale not given: the % may be the effect or the level left
[6] = molecular target: T1, DNA topoisomerase 2-alpha; assay: Inhibition of human DNA topoisomerase IIalpha ATPase activity assessed as residual ATP hydrolysis at 62.5 uM measured up to 60 mins
[7] = molecular target: T1, DNA topoisomerase 2-alpha; assay: Inhibition of human DNA topoisomerase IIalpha ATPase activity assessed as residual ATP hydrolysis at 31.5 uM measured up to 60 mins
[8] = molecular target: T1, DNA topoisomerase 2-alpha; assay: Inhibition of human DNA topoisomerase IIalpha ATPase activity assessed as residual ATP hydrolysis at 15.625 uM measured up to 60 mins
[9] = molecular target: T1, DNA topoisomerase 2-alpha; assay: Inhibition of human DNA topoisomerase IIalpha assessed as reduction in enzyme-catalyzed supercoiling of relaxed circular pBR322 DNA by measuring linear DNA level at 31.5 uM after 60 mins by agarose gel electrophoresis; parameters: scale not given: the % may be the effect or the level left
[10] = molecular target: T1, DNA topoisomerase 2-alpha; assay: Inhibition of human DNA topoisomerase IIalpha assessed as reduction in enzyme-catalyzed supercoiling of relaxed circular pBR322 DNA by measuring linear DNA level at 15.625 uM after 60 mins by agarose gel electrophoresis; parameters: scale not given: the % may be the effect or the level left
[11] = molecular target: T1, DNA topoisomerase 2-alpha; assay: Inhibition of human DNA topoisomerase IIalpha assessed as reduction in enzyme-catalyzed supercoiling of relaxed circular pBR322 DNA by measuring linear DNA level at 3.9 uM after 60 mins by agarose gel electrophoresis; parameters: scale not given: the % may be the effect or the level left
[12] = molecular target: T1, DNA topoisomerase 2-alpha; assay: Inhibition of human DNA topoisomerase IIalpha assessed as decatenation of kDNA at 62.5 uM after 90 mins by ethidium bromide staining; parameters: scale not given: the % may be the effect or the level left
[13] = molecular target: T1, DNA topoisomerase 2-alpha; assay: Inhibition of human DNA topoisomerase IIalpha assessed as decatenation of kDNA at 31.5 uM after 90 mins by ethidium bromide staining; parameters: scale not given: the % may be the effect or the level left
[14] = molecular target: T1, DNA topoisomerase 2-alpha; assay: Inhibition of human DNA topoisomerase IIalpha assessed as reduction in enzyme-catalyzed supercoiling of relaxed circular pBR322 DNA by measuring linear DNA level at 62.5 uM after 60 mins by agarose gel electrophoresis; parameters: scale not given: the % may be the effect or the level left
[15] = Lipophilicity, log P of the compound; format: physicochemical; details: octanol/water
[16] = molecular target: T1, DNA topoisomerase 2-alpha; assay: Inhibition of human DNA topoisomerase IIalpha assessed as reduction in enzyme-catalyzed supercoiling of relaxed circular pBR322 DNA by measuring linear DNA level after 60 mins by agarose gel electrophoresis
[17] = molecular target: T1, DNA topoisomerase 2-alpha; assay: Inhibition of human DNA topoisomerase IIalpha assessed as decatenation of kDNA after 90 mins by ethidium bromide staining
[18] = molecular target: T1, DNA topoisomerase 2-alpha; assay: Inhibition of human DNA topoisomerase IIalpha assessed as decatenation of kDNA at 125 uM after 90 mins by ethidium bromide staining; parameters: scale not given: the % may be the effect or the level left
[19] = molecular target: T1, DNA topoisomerase 2-alpha; assay: Inhibition of human DNA topoisomerase IIalpha assessed as reduction in enzyme-catalyzed supercoiling of relaxed circular pBR322 DNA by measuring linear DNA level at 125 uM after 60 mins by agarose gel electrophoresis in presence of 50 uM of etoposide; parameters: scale not given: the % may be the effect or the level left
[20] = molecular target: T1, DNA topoisomerase 2-alpha; assay: Inhibition of human DNA topoisomerase IIalpha assessed as reduction in enzyme-catalyzed supercoiling of relaxed circular pBR322 DNA by measuring linear DNA level at 31.5 uM after 60 mins by agarose gel electrophoresis in presence of 50 uM of etoposide; parameters: scale not given: the % may be the effect or the level left
[21] = molecular target: T1, DNA topoisomerase 2-alpha; assay: Inhibition of human DNA topoisomerase IIalpha assessed as reduction in enzyme-catalyzed supercoiling of relaxed circular pBR322 DNA by measuring linear DNA level at 125 uM after 60 mins by agarose gel electrophoresis; parameters: scale not given: the % may be the effect or the level left
[22] = molecular target: T1, DNA topoisomerase 2-alpha; assay: Inhibition of human DNA topoisomerase IIalpha assessed as decatenation of kDNA at 500 uM after 90 mins by ethidium bromide staining; parameters: scale not given: the % may be the effect or the level left
[23] = molecular target: T1, DNA topoisomerase 2-alpha; assay: Inhibition of human DNA topoisomerase IIalpha assessed as reduction in enzyme-catalyzed supercoiling of relaxed circular pBR322 DNA by measuring linear DNA level at 3.9 uM after 60 mins by agarose gel electrophoresis in presence of 50 uM of etoposide; parameters: scale not given: the % may be the effect or the level left
[24] = molecular target: T1, DNA topoisomerase 2-alpha; assay: Inhibition of human DNA topoisomerase IIalpha assessed as reduction in enzyme-catalyzed supercoiling of relaxed circular pBR322 DNA by measuring linear DNA level at 500 uM after 60 mins by agarose gel electrophoresis; parameters: scale not given: the % may be the effect or the level left
[25] = molecular target: T1, DNA topoisomerase 2-alpha; assay: Inhibition of human DNA topoisomerase IIalpha assessed as reduction in enzyme-catalyzed supercoiling of relaxed circular pBR322 DNA by measuring linear DNA level at 500 uM after 60 mins by agarose gel electrophoresis in presence of 50 uM of etoposide; parameters: scale not given: the % may be the effect or the level left
[26] = molecular target: T1, DNA topoisomerase 2-alpha; assay: Inhibition of human DNA topoisomerase IIalpha assessed as reduction in enzyme-catalyzed supercoiling of relaxed circular pBR322 DNA by measuring linear DNA level at 50 uM after 60 mins by agarose gel electrophoresis; parameters: scale not given: the % may be the effect or the level left
[27] = molecular target: T1, DNA topoisomerase 2-alpha; assay: Inhibition of human DNA topoisomerase IIalpha ATPase activity assessed as residual ATP hydrolysis at 125 uM measured up to 60 mins

## COc1ccc(CCNc2nc(Cl)nc(Cl)n2)cc1OC
[1]
  IC50: > 1000 µM

## COc1nc(N[C@H](CCC(=O)OCc2ccccc2)C(=O)OCc2ccccc2)nc(OC)n1
[1]
  IC50: > 1000 µM

## COc1ccccc1CSc1nc(SCc2ccccc2)nc(=O)[nH]1
[1]
  IC50: > 1000 µM

## O=C1NC(SCc2ccccc2)=NC(Sc2ccccc2)N1 (stereo not drawn)
[1]
  IC50: > 1000 µM

## O=c1nc(SCc2ccccc2)nc(SCc2ccc(F)cc2)[nH]1
[1]
  IC50: 147 µM

## O=c1nc(SCc2ccccc2)nc(SCc2cccc([N+](=O)[O-])c2)[nH]1
[1]
  IC50: 488 µM

## CC(C(C)N1CC(=O)NC(=O)C1)N1CC(=O)NC(=O)C1 (stereo not drawn)
[2]
  Activity: 0% and 18.7%
[3]
  Activity: 0%
[4]
  Activity: 77.4%
[5]
  Activity: 18.2%
[6]
  Activity: 0%
[7]
  Activity: 0%
[8]
  Activity: 0%
[9]
  Activity: 2.51%
[10]
  Activity: 3.1%
[11]
  Activity: 1.7%
[12]
  Activity: 6.05%
[13]
  Activity: 10.8%
[14]
  Activity: 2.1%

## O=c1nc(SCc2ccccc2)nc(SCc2ccccc2Cl)[nH]1
[15]
  logP: 3.3
[1]
  IC50: 94.1 µM

## COc1nc(Nc2ccccc2C(=O)N[C@@H](C)C(=O)OCc2ccccc2)nc(N[C@@H](C)C(=O)OCc2ccccc2)n1
[1]
  IC50: > 1000 µM

## O=c1nc(SCc2ccccc2)nc(S)[nH]1
[1]
  IC50: > 1000 µM

## Nc1ccc(-c2nc(=S)[nH]c(=O)[nH]2)cc1
[1]
  IC50: > 1000 µM

## O=C(O)CSC1N=C(SCc2ccccc2)NC(=O)N1 (stereo not drawn)
[1]
  IC50: > 1000 µM

## O=c1nc(SCc2ccccc2)nc(SCc2cccc(Cl)c2)[nH]1
[16]
  inhibition: Dose-dependent effect
[17]
  inhibition: Dose-dependent effect
[4]
  Activity: 87.3%
[18]
  Activity: 0%
[5]
  Activity: 18.2%
[19]
  Activity: 9.2%
[20]
  Activity: 33.5%
[21]
  Activity: 3.5%
[22]
  Activity: 0%
[15]
  logP: 3.3
[23]
  Activity: 34.3%
[9]
  Activity: 1.2%
[1]
  IC50: 54.6 µM
[24]
  Activity: 2.5%
[11]
  Activity: 4.4%
[12]
  Activity: 6.05%
[25]
  Activity: 5.3%
[13]
  Activity: 33.9%

## COC(=O)c1ccccc1Oc1nc(OC)nc(OC)n1
[1]
  IC50: > 1000 µM

## N#Cc1ccccc1CSc1nc(SCc2ccccc2)nc(=O)[nH]1
[1]
  IC50: 522 µM

## COc1cc([C@@H]2c3cc4c(cc3[C@@H](O[C@@H]3O[C@@H]5CO[C@@H](C)O[C@H]5[C@H](O)[C@H]3O)[C@H]3COC(=O)[C@H]23)OCO4)cc(OC)c1O
[2]
  Activity: 18.7%
[3]
  Activity: 65.4%
[4]
  Activity: 88.3%
[18]
  Activity: 14.2%
[21]
  Activity: 36.1%
[22]
  Activity: 3.25%
[7]
  Activity: 45.8%
[26]
  Activity: 34.6%
[9]
  Activity: 34.3%
[24]
  Activity: 32.5%
[11]
  Activity: 12.4%
[13]
  Activity: 68.8%
[27]
  Activity: 31.8%
[14]
  Activity: 18.1%

## COc1nc(OC)nc(Sc2ccccc2C(=O)N[C@H](CCC(=O)OCc2ccccc2)C(=O)OCc2ccccc2)n1
[1]
  IC50: > 1000 µM

## O=c1nc(-c2ccccc2)nc(S)[nH]1
[1]
  IC50: > 1000 µM

## CN(CCO)c1nc(Cl)nc(Nc2ccccc2CCO)n1
[1]
  IC50: > 1000 µM

## COc1nc(Nc2ccccc2C(=O)O)nc(OC)n1
[1]
  IC50: > 1000 µM

## CCCCSc1nc(SCc2ccccc2)nc(=O)[nH]1
[1]
  IC50: 235 µM

## COc1ccc(CNc2nc(Cl)nc(Nc3ccccc3CCO)n2)cc1
[1]
  IC50: > 1000 µM

## Cc1ccc(-c2nc(S)[nH]c(=O)n2)cc1
[1]
  IC50: > 1000 µM

## N#Cc1ccc(CSc2nc(SCc3ccccc3)nc(=O)[nH]2)cc1
[1]
  IC50: 153 µM

## Clc1nc(Cl)nc(Nc2ccccc2Br)n1
[1]
  IC50: > 1000 µM
